Patent US20210290644A1, “COMPOUNDS AND METHODS FOR TREATING FUNGAL INFECTIONS” (Amplyx Pharmaceuticals, Inc., priority 2018, published 2021)
“And” between values parts separate entries of the source, which are not always exact repeats. Identical values can stand only once.

Test: Study #1 Phase 1: plasma and urine pharmacokinetics of Compound 1 and Compound 1A after IV infusion of Compound 1 (SAD, MAD, loading regimen)
Conditions: both, human, plasma; for Vd: Vz
[1] = 100 mg, Cohort 3: Compound 1 100 mg/3 hr IV, single dose, geometric mean [geometric %CV]
[2] = 200 mg, Cohort 4: Compound 1 200 mg/3 hr IV, single dose, geometric mean [geometric %CV]
[3] = 275 mg, Cohort 5: Compound 1 275 mg/3 hr IV, single dose, geometric mean [geometric %CV]
[4] = 300 mg, Cohort 9: Compound 1 300 mg/3 hr IV QD × 14 days, Day 14, geometric mean
[5] = 600 mg, Cohort 10: Compound 1 600 mg/3 hr IV QD × 14 days, Day 14, geometric mean
[6] = 600 mg, Cohort 12 loading regimen: Compound 1 600 mg/1 hr IV QD, Day 7, geometric mean
[7] = 1000 mg, Cohort 11: Compound 1 1,000 mg/0.5 hr IV, single dose, geometric mean
[8] = 1000 mg, Cohort 11: Compound 1 1,000 mg/1 hr IV, single dose, geometric mean
[9] = 1000 mg, Cohort 11: Compound 1 1,000 mg/2 hr IV, single dose, geometric mean
[10] = 1000 mg, Cohort 11: Compound 1 1,000 mg/3 hr IV, single dose, geometric mean

Source text: This was a Phase 1, first-in-human, randomized, double-blind, placebo-controlled single ascending dose (SAD) and multiple ascending dose (MAD) escalation study of 120 healthy male and female subjects. The objectives of the study were to evaluate the safety, tolerability, and pharmacokinetics of single and multiple doses of Compound 1 administered by intravenous (IV) infusion.
In the single ascending dose (SAD) phase, Cohorts 1 to 6 and 11A to 11D received single doses. For Cohorts 11A to 11D, the infusion time varied from 0.5 to 3 hours to evaluate the relationship between C., and tolerability. In the multiple ascending dose (MAD) phase, Cohorts 7 to 10 received multiple doses over 14 days, and Cohort 12 examined the feasibility of a loading dose regimen.
Blood samples for the determination of Compound 1 and Compound 1A plasma concentrations were collected before and at appropriate times during all single- and multiple-dose administrations of Compound 1. For SAD Cohorts 1 to 6, urine samples for the determination of Compound 1A were collected through 48 hrs after dosing.
Eighty (80) subjects were enrolled into SAD Cohorts 1 to 6 and 11A to 11D. Within each cohort, six subjects were randomized to Compound 1 and two subjects to placebo. All 60 subjects randomized to Compound 1 completed dosing. Fifty-nine (59) subjects completed the study.
Forty (40) subjects were enrolled into MAD Cohorts 7 to 10 and Loading Dose Cohort 12. Within each cohort, six subjects were randomized to Compound 1 and two subjects to placebo.
The PK analysis population therefore consisted of 60 subjects in the SAD phase and 28 subjects in the MAD phase.

Compound `Nc1ncccc1-c1cc(Cc2ccc(COc3ccccn3)cc2)no1` [Compound 1A] has a Vd (50 mg, Cohort 7: Compound 1 50 mg/3 hr IV QD × 14 days, Day 14, geometric mean) of 2.44 L/kg, an AUC(0-t) (100 mg, AUC(0-24), Cohort 3: Compound 1 100 mg/3 hr IV, single dose, geometric mean [geometric %CV]) of 14.4 µg·h/mL and an AUC(0-t) (100 mg, AUC(0-t), Cohort 3: Compound 1 100 mg/3 hr IV, single dose, geometric mean [geometric %CV]) of 47.4 µg·h/mL. For the same compound, the AUC(0-inf) [1] was 50.4 µg·h/mL, the Cmax [1] was 1440 ng/mL and the Tmax (100 mg, Cohort 3: Compound 1 100 mg/3 hr IV, single dose, median) was 3 h. The Vd [1] was 115 L and 1.88 L/kg, the AUC(0-t) (150 mg, AUC(0-24), Cohort 8: Compound 1 150 mg/3 hr IV QD × 14 days, Day 1, geometric mean) was 19.4 µg·h/mL and the AUC(0-t) (150 mg, AUC(0-24), Cohort 8: Compound 1 150 mg/3 hr IV QD × 14 days, Day 7, geometric mean) was 48.7 µg·h/mL. The Cmax (150 mg, Cohort 8: Compound 1 150 mg/3 hr IV QD × 14 days, Day 1, geometric mean) was 1860 ng/mL, the Cmax (150 mg, Cohort 8: Compound 1 150 mg/3 hr IV QD × 14 days, Day 7, geometric mean) was 3090 ng/mL and the Tmax (150 mg, Cohort 8: Compound 1 150 mg/3 hr IV QD × 14 days, Day 1, median) was 3 h. It also gave a Tmax (150 mg, Cohort 8: Compound 1 150 mg/3 hr IV QD × 14 days, Day 7, median) of 3 h, a Tmax (150 mg, Cohort 8: Compound 1 150 mg/3 hr IV QD × 14 days, Day 14, median) of 3.02 h and an AUC(0-t) (200 mg, AUC(0-24), Cohort 4: Compound 1 200 mg/3 hr IV, single dose, geometric mean [geometric %CV]) of 20.7 µg·h/mL. For the same compound, the AUC(0-inf) [2] was 83.2 µg·h/mL, the Cmax [2] was 2410 ng/mL and the Tmax (200 mg, Cohort 4: Compound 1 200 mg/3 hr IV, single dose, median) was 3 h. The Vd [2] was 178 L and 2.46 L/kg, the AUC(0-t) (275 mg, AUC(0-24), Cohort 5: Compound 1 275 mg/3 hr IV, single dose, geometric mean [geometric %CV]) was 37.1 µg·h/mL and the AUC(0-t) (275 mg, AUC(0-t), Cohort 5: Compound 1 275 mg/3 hr IV, single dose, geometric mean [geometric %CV]) was 114 µg·h/mL. It also gave an AUC(0-inf) [3] of 120 µg·h/mL, a Cmax [3] of 3960 ng/mL and a Tmax (275 mg, Cohort 5: Compound 1 275 mg/3 hr IV, single dose, median) of 3 h. The Vd [3] was 123 L and 1.75 L/kg, the AUC(0-t) (300 mg, AUC(0-24), Cohort 9: Compound 1 300 mg/3 hr IV QD × 14 days, Day 1, geometric mean) was 37.1 µg·h/mL and the AUC(0-t) (300 mg, AUC(0-24), Cohort 9: Compound 1 300 mg/3 hr IV QD × 14 days, Day 7, geometric mean) was 104 µg·h/mL. For the same compound, the AUC(0-t) (300 mg, AUC(0-24), Cohort 9: Compound 1 300 mg/3 hr IV QD × 14 days, Day 14, geometric mean) was 118 µg·h/mL, the Cmax (300 mg, Cohort 9: Compound 1 300 mg/3 hr IV QD × 14 days, Day 1, geometric mean) was 3690 ng/mL and the Cmax (300 mg, Cohort 9: Compound 1 300 mg/3 hr IV QD × 14 days, Day 7, geometric mean) was 6650 ng/mL. The Cmax [4] was 7520 ng/mL, the Tmax (300 mg, Cohort 9: Compound 1 300 mg/3 hr IV QD × 14 days, Day 1, median) was 3 h and the Tmax (300 mg, Cohort 9: Compound 1 300 mg/3 hr IV QD × 14 days, Day 7, median) was 3 h. The Tmax (300 mg, Cohort 9: Compound 1 300 mg/3 hr IV QD × 14 days, Day 14, median) was 3.02 h, the Vd [4] was 148 L and 2.22 L/kg and the Tmax (350 mg, Cohort 6: Compound 1 350 mg/3 hr IV, single dose, median) was 3 h. The AUC(0-t) (600 mg, AUC(0-24), Cohort 10: Compound 1 600 mg/3 hr IV QD × 14 days, Day 1, geometric mean) was 72.7 µg·h/mL, the AUC(0-t) (600 mg, AUC(0-24), Cohort 10: Compound 1 600 mg/3 hr IV QD × 14 days, Day 7, geometric mean) was 217 µg·h/mL and the AUC(0-t) (600 mg, AUC(0-24), Cohort 10: Compound 1 600 mg/3 hr IV QD × 14 days, Day 14, geometric mean) was 245 µg·h/mL. The AUC(0-t) (600 mg, AUC(0-24), Cohort 12 loading regimen: Compound 1 600 mg/1 hr IV QD, Day 4, geometric mean) was 219 µg·h/mL, the AUC(0-t) (600 mg, AUC(0-24), Cohort 12 loading regimen: Compound 1 600 mg/1 hr IV QD, Day 7, geometric mean) was 201 µg·h/mL and the Cmax (600 mg, Cohort 10: Compound 1 600 mg/3 hr IV QD × 14 days, Day 1, geometric mean) was 7570 ng/mL. For the same compound, the Cmax (600 mg, Cohort 10: Compound 1 600 mg/3 hr IV QD × 14 days, Day 7, geometric mean) was 14500 ng/mL, the Cmax [5] was 15400 ng/mL and the Cmax (600 mg, Cohort 12 loading regimen: Compound 1 600 mg/1 hr IV QD, Day 4, geometric mean) was 17900 ng/mL. The Cmax [6] was 17700 ng/mL, the Tmax (600 mg, Cohort 10: Compound 1 600 mg/3 hr IV QD × 14 days, Day 1, median) was 3 h and the Tmax (600 mg, Cohort 10: Compound 1 600 mg/3 hr IV QD × 14 days, Day 7, median) was 3.03 h. The Tmax (600 mg, Cohort 10: Compound 1 600 mg/3 hr IV QD × 14 days, Day 14, median) was 3 h, the Tmax (600 mg, Cohort 12 loading regimen: Compound 1 600 mg/1 hr IV QD, Day 4, median) was 1 h and the Tmax (600 mg, Cohort 12 loading regimen: Compound 1 600 mg/1 hr IV QD, Day 7, median) was 1 h. For the same compound, the Vd [5] was 175 L and 2.75 L/kg, the Vd [6] was 162 L and 2.27 L/kg and the AUC(0-t) (1000 mg, AUC(0-24), Cohort 11: Compound 1 1,000 mg/0.5 hr IV, single dose, geometric mean) was 131 µg·h/mL. For the same compound, the AUC(0-t) (1000 mg, AUC(0-24), Cohort 11: Compound 1 1,000 mg/1 hr IV, single dose, geometric mean) was 134 µg·h/mL, the AUC(0-t) (1000 mg, AUC(0-24), Cohort 11: Compound 1 1,000 mg/2 hr IV, single dose, geometric mean) was 130 µg·h/mL and the AUC(0-t) (1000 mg, AUC(0-24), Cohort 11: Compound 1 1,000 mg/3 hr IV, single dose, geometric mean) was 117 µg·h/mL. The AUC(0-t) (1000 mg, AUC(0-24), Cohort 12 loading regimen: Compound 1 1,000 mg/2 hr IV at 0 & 9 hr, Day 1, geometric mean) was 211 µg·h/mL, the AUC(0-t) (1000 mg, AUC(0-t), Cohort 11: Compound 1 1,000 mg/1 hr IV, single dose, geometric mean) was 481 µg·h/mL and the AUC(0-t) (1000 mg, AUC(0-t), Cohort 11: Compound 1 1,000 mg/2 hr IV, single dose, geometric mean) was 476 µg·h/mL. The AUC(0-inf) [7] was 434 µg·h/mL, the AUC(0-inf) [8] was 536 µg·h/mL and the AUC(0-inf) [9] was 541 µg·h/mL. For the same compound, the AUC(0-inf) [10] was 400 µg·h/mL, the Cmax [7] was 24900 ng/mL and the Cmax [8] was 20100 ng/mL. For the same compound, the Cmax [9] was 15600 ng/mL, the Cmax [10] was 11900 ng/mL and the Cmax (1000 mg, Cohort 12 loading regimen: Compound 1 1,000 mg/2 hr IV at 0 & 9 hr, Day 1, geometric mean) was 15700 ng/mL. The Tmax (1000 mg, Cohort 11: Compound 1 1,000 mg/0.5 hr IV, single dose, median) was 0.52 h, the Tmax (1000 mg, Cohort 11: Compound 1 1,000 mg/1 hr IV, single dose, median) was 1.02 h and the Tmax (1000 mg, Cohort 11: Compound 1 1,000 mg/2 hr IV, single dose, median) was 2.02 h. For the same compound, the Tmax (1000 mg, Cohort 11: Compound 1 1,000 mg/3 hr IV, single dose, median) was 3.02 h, the Tmax (1000 mg, Cohort 12 loading regimen: Compound 1 1,000 mg/2 hr IV at 0 & 9 hr, Day 1, median) was 11 h and the Vd [7] was 141 L and 19.7 L/kg. The Vd [8] was 139 L and 2.11 L/kg, the Vd [9] was 153 L and 2.43 L/kg and the Vd [10] was 153 L and 2.02 L/kg.
